Square brackets hold non-standard residues; d marks the D form. Peptide text beside a SMILES is read from it. Nle = CCCC[C@H](N)C(=O)O; Orn = NCCC[C@H](N)C(=O)O
Biological target: T1, NK-2 receptor (Oryctolagus cuniculus, UniProt P79218)
T1 construct: This preparation is isolated rabbit pulmonary artery, in which tachykinins produce dose-related contraction; from tissue; host or cells: isolated rabbit pulmonary artery
T1 sequence (P79218 1-384): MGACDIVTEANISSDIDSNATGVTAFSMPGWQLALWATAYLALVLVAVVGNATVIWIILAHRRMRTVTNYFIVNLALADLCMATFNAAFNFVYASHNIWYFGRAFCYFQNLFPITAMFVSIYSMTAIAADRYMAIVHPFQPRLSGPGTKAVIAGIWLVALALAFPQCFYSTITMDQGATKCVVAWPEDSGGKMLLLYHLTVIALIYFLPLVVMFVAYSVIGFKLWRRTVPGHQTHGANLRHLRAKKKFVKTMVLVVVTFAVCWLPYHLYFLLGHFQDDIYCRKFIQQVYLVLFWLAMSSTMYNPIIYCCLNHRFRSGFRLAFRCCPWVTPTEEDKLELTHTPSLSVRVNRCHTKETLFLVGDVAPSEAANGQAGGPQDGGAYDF
Experiment: Antagonism of NKA-induced contraction in isolated rabbit pulmonary artery
Format: cell-based
Settings: inhibition of the response to NKA (3 nM), 10⁻⁶M concentration of each compound
Protocol: The ability of the peptides described in the present invention to interact with the neurokinin A receptor as agonists or antagonists was evaluated in an in-vitro study using a preparation in which the biological response produced by tachykinins and related peptides is determined exclusively from the neurokinin A receptor (NK-2 receptor). This preparation is isolated rabbit pulmonary artery, in which tachykinins produce dose-related contraction (Rovero et al., Neuropeptides, 1989, 13: 263-270). The activity of the peptides in this preparation was determined using a concentration of NKA (3 nM) that produces a response equivalent to 45% of the maximum. The peptides that are the subject of the present application were added to the preparation in increasing concentrations and their activity evaluated in terms of inhibition of the response to NKA.
Antagonist biological activity on the NK-2 receptor in isolated rabbit pulmonary artery of the peptides described.

## CC(C)[C@H](NC(=O)[C@@H](Cc1c[nH]c2ccccc12)NC(=O)[C@H](Cc1ccc(O)cc1)NC(=O)[C@@H](N)CC(=O)O)C(=O)N[C@H](Cc1c[nH]c2ccccc12)C(=O)N[C@H](Cc1c[nH]c2ccccc12)C(=O)N[C@@H](CCCN)C(N)=O [H-Asp-Tyr-DTrp-Val-DTrp-DTrp-Orn-NH₂] (H-DY[dW]V[dW][dW][Orn]-NH2)
  inhibition: 100%

## CCCC[C@H](NC(=O)[C@@H](Cc1c[nH]c2ccccc12)NC(=O)[C@@H](Cc1c[nH]c2ccccc12)NC(=O)[C@@H](NC(=O)[C@@H](Cc1c[nH]c2ccccc12)NC(=O)[C@H](Cc1ccc(O)cc1)NC(=O)[C@@H](N)CC(=O)O)C(C)C)C(N)=O [H-Asp-Tyr-DTrp-Val-DTrp-DTrp-Nle-NH₂] (H-DY[dW]V[dW][dW][Nle]-NH2)
  inhibition: 100%

## CC(C)[C@H](NC(=O)[C@@H](Cc1c[nH]c2ccccc12)NC(=O)[C@H](Cc1ccc(O)cc1)NC(=O)[C@@H](N)CC(=O)O)C(=O)N[C@H](Cc1c[nH]c2ccccc12)C(=O)N[C@H](Cc1c[nH]c2ccccc12)C(=O)N[C@@H](C)C(N)=O [H-Asp-Tyr-DTrp-Val-DTrp-DTrp-Ala-NH₂] (H-DY[dW]V[dW][dW]A-NH2)
  inhibition: 100%

## CC(C)[C@H](NC(=O)[C@@H](Cc1c[nH]c2ccccc12)NC(=O)[C@H](Cc1ccc(O)cc1)NC(=O)[C@@H](N)CC(=O)O)C(=O)N[C@H](Cc1c[nH]c2ccccc12)C(=O)N[C@H](Cc1c[nH]c2ccccc12)C(=O)N[C@@H](CCCCN)C(N)=O [H-Asp-Tyr-DTrp-Val-DTrp-DTrp-Lys-NH₂] (H-DY[dW]V[dW][dW]K-NH2)
  inhibition: 100%

## CC(C)[C@H](NC(=O)[C@@H](Cc1c[nH]c2ccccc12)NC(=O)[C@H](Cc1ccc(O)cc1)NC(=O)[C@@H](N)CC(=O)O)C(=O)N[C@H](Cc1c[nH]c2ccccc12)C(=O)N[C@H](Cc1c[nH]c2ccccc12)C(=O)N[C@@H](CCC(=O)O)C(N)=O [H-Asp-Tyr-DTrp-Val-DTrp-DTrp-Glu-NH₂] (H-DY[dW]V[dW][dW]E-NH2)
  inhibition: 100%

## CC(C)C[C@H](NC(=O)[C@@H](Cc1c[nH]c2ccccc12)NC(=O)[C@@H](Cc1c[nH]c2ccccc12)NC(=O)[C@@H](NC(=O)[C@@H](Cc1c[nH]c2ccccc12)NC(=O)[C@H](Cc1ccc(O)cc1)NC(=O)[C@@H](N)CC(=O)O)C(C)C)C(N)=O [H-Asp-Tyr-DTrp-Val-DTrp-DTrp-Leu-NH₂] (H-DY[dW]V[dW][dW]L-NH2)
  inhibition: 100%

## CC(C)[C@@H]1NC(=O)[C@@H](Cc2c[nH]c3ccccc23)NC(=O)[C@H](Cc2ccc(O)cc2)NC(=O)[C@H](CC(=O)O)NC(=O)[C@H](CCCCN)NC(=O)[C@@H](Cc2c[nH]c3ccccc23)NC(=O)[C@@H](Cc2c[nH]c3ccccc23)NC1=O [Cyclo[AspTyrDTrpValDTrpDTrpLys], cyclo[AspTyrDTrpValDTrpDTrpLys]] (cyclo(DY[dW]V[dW][dW]K))
  inhibition: 95%

## CC(C)[C@@H]1NC(=O)[C@@H](Cc2c[nH]c3ccccc23)NC(=O)[C@H](Cc2ccc(O)cc2)NC(=O)[C@H](CC(=O)O)NC(=O)[C@H](CCCNC(=N)N)NC(=O)[C@@H](Cc2c[nH]c3ccccc23)NC(=O)[C@@H](Cc2c[nH]c3ccccc23)NC1=O [Cyclo[AspTyrDTrpValDTrpDTrpArg], cyclo[AspTyrDTrpValDTrpDTrpArg]] (cyclo(DY[dW]V[dW][dW]R))
  inhibition: 95%

## CC(C)[C@H](NC(=O)[C@@H](Cc1c[nH]c2ccccc12)NC(=O)[C@H](Cc1ccc(O)cc1)NC(=O)[C@@H](N)CC(=O)O)C(=O)N[C@H](Cc1c[nH]c2ccccc12)C(=O)N[C@H](Cc1c[nH]c2ccccc12)C(=O)NCC(N)=O [H-Asp-Tyr-DTrp-Val-DTrp-DTrp-Gly-NH₂] (H-DY[dW]V[dW][dW]G-NH2)
  inhibition: 100%
